Measured values reported in patent US20090214426A1, “Assay Method” (priority 2004, published 2009).
“Also recorded” adds a separate entry of the source.

Assays:
[1] = tested on: fibromyalgia patients; settings: randomised controlled clinical trials (Mease 2003); cited from earlier work
[2] = tested on: CCI rats; assay: Open field test in CCI rats; type: in vivo, rat; settings: for reversal of pain-related anxiety-like behaviour of CCI rats: summary statement, dose not stated
Description: (§1) The CCI of sciatic nerve is performed as previously described by Bennett and Xie (1988). Animals are anaesthetized with a 2% isofluorane/O2 mixture maintained during surgery via a nose cone and the common sciatic nerve is exposed at the middle of the right thigh by blunt dissection through biceps femoris. Proximal to the sciatic trifurcation, about 7 mm of nerve is freed of adhering tissue and 4 ligatures (4-0 silk) are tied loosely around it with about 1 mm spacing. Ligatures are tied such that the circulation through the superficial epineural vasculature is retarded but not arrested. The incision is then closed in layers and the wound treated with topical antibiotics. In the sham-operated group an identical dissection is performed on the ipsilateral paw except the sciatic nerve is not ligated.
(§2) The spontaneous locomotor activity of rats in an open field is monitored for 30 minutes in a 70×70 cm dark arena (Prut ans Beizung, 2003, Eur J Pharmacol. 463:3-33). Each animal was placed in the centre of the arena and a video camera recorded movement of the animal. Four rats are recorded simultaneously in four different cages. Data are collected and analysed by Ethovision 3.0 software (Noldus IT, Netherdland) and the exploratory behaviour is expressed as number of entries in the central area of the arena (23×23 cm).
To measure the anxiety-like behaviour in CCI rats the open field test is carried out in normal light conditions (100 Lux).
For a pharmacological validation of the model, CCI rats with a poor exploratory activity (entries≦6) are pre selected in the open field and a week later treated with diazepam (1 and 3 mg/kg, i.p.), tramadol (30 mpk, p.o.) or gabapentin (30-100 mg/kg, p.o.). Naïve CD vehicle-treated rats are used as positive control.

[3] = tested on: patients with diabetic neuropathy and post herpetic neuralgia; settings: randomised controlled clinical trials (Backonja 1998; Rowbotham 1998); cited from earlier work
[4] = tested on: CCI rats; assay: Beam walking test in CCI rats; type: in vivo, rat; settings: for efficacy on reversing beam walking impairments: summary statement, dose not stated
Description: as §1
The Beam walking apparatus consists of a 1.5 m long beam with a 2.5×2.5 cm square cross section, elevated 75 cm above the floor. The test is performed in dim light conditions (18 lux). A light source (520 lux) is placed at the start-end of the beam while a dark box at the other side (Goldstein & Davis, 1990, J Neurosci Methods; 31:101-107). Rats are trained over a period of 2 days to cross the beam. On the day of the test an additional training section is performed before the proper test trial was performed. […] Rats that cross the beam without using the ipsilateral paw are given a maximal number of foot slips.
Starting from 3 weeks post surgery, CCI rats are selected based on their performances. Only those showing a number of foot slips of 2 or above are selected and used for the pharmacological validation of the test. A group of naïve CD rats are treated with vehicle and used as positive controls. […]

[5] = tested on: CCI rats; assay: Rota rod test in CCI rats; type: in vivo, rat; settings: analgesic doses; selected rats with mean performance <80 seconds; data not shown
Description: as §1
The rota rod test consists of 4 rotatable drums divided by flanges with a motor-driven drum which is capable of acceleration (Ugo Basile, Comerio, VA, Italy). For a given trial, a rat is placed on the rotating rod and the rotation speed is accelerated from 4 to 16 revolutions per minute (rpm) in 2 minutes. The time of maximal performance is set at 120 seconds (Voikar V et al, 2001, Physiol Behav., 2001; 72:271-81). […]

[6] = tested on: CD naïve rat; assay: Open field test in naïve rats (anxiogenic validation); type: in vivo
Description: as §2
To measure the anxiety-like behaviour in CCI rats the open field test is carried out in normal light conditions (100 Lux). […] To confirm that the environmental conditions we set up, could let us measure an anxiety-like behaviour, the activity of the anxiogenic compound mCPP was tested in CD naïve rat.

[7] = tested on: CCI rats; assay: Object recognition test in CCI rats; type: in vivo, rat; settings: tramadol 100 mg/kg po, 3.5 hours post familiarization, tested 30 minutes later
Description: as §1
The Object Recognition test was performed as described by Ennaceur and Delacour (1988). The apparatus consisted of a black circular arena 55 cm in diameter with 50 cm black walls. […]
Each animal was trained prior to testing; this involved handling and habituation of the rat to the arena for 5 minutes per session, twice a day for three consecutive days. […] The distance moved in the arena and the time spent exploring each object during familiarization and sample phases were recorded manually and automatically, respectively by the videotracking system (Noldus Ethovision 3.0, Netherland). […]

For `CC(C)C[C@H](CN)CC(=O)O` [Pregabalin], the “QoL deficit of fibromyalgia patients” value [1] is given as “showed efficacy”.
For `NCC1(CC(=O)O)CCCCC1` [gabapentin], the “number of entries in the centre of the open field compared to CCI vehicle-treated group” value ([2]; gabapentin 30 mg/kg p.o.) was “increased”, the “anxiety-like behaviour of injured rats” value ([2]; gabapentin 100 mg/kg p.o.) was “completely reversed” and the “number of entries in the centre of the open field” value ([2]; gabapentin 100 mg/kg p.o., 1 hour before the test, vs 14±2 naïve vehicle-treated group, NS) was 12±2. For the same compound, the “exploratory activity of neuropathic rats” value ([2]; gabapentin 30-100 mg/kg p.o.) was “improved”, the “reversal of pain-related anxiety-like behaviour of CCI rats” value (“reversal” below) [2] was “does” and the QoL of patients [3] was “demonstrated an improvement”.
For `CN(C)CCC=C1c2ccccc2CCc2ccccc21` [Amitriptyline], the “neuropathic rats performance in the beam walking task” value ([4]; amitriptyline 2 mg/kg (FIG. 2C)) was “did not improve”, the “neuropathic rats performance in the beam walking task” value ([4]; amitriptyline 20 mg/kg (data not shown)) was “did not improve” and the “efficacy on reversing beam walking impairments” value (from here on “efficacy”) [4] was “does not”.
In the case of `CN1CC[C@]23c4c5ccc(O)c4O[C@H]2[C@@H](O)C=C[C@H]3[C@H]1C5` [Morphine], the “rats performance in the beam walking test” value ([4]; morphine 1 mg/kg s.c. (lower dose)) is reported as “not statistically different from the control value”, the “number of foot slips” value ([4]; morphine 3 mg/kg s.c. (higher dose), 30 minutes post dosing, vs 6±1 baseline, p<0.05) is reported as 3±1 and the “number of foot slips” value ([4]; morphine 3 mg/kg s.c. (higher dose), 1 hour post dosing, vs 5±1 baseline, p<0.05) is reported as 2±1. For the same compound, the “efficacy” value [4] was “show efficacy” and the “rota rod performance of neuropathic rats” value [5] was “did not improve; also recorded: did not showed improvement”.
In the case of `CN1C(=O)CN=C(c2ccccc2)c2cc(Cl)ccc21` [Diazepam], the “pain-related anxiety-like behaviour of CCI rats (entries in centre)” value ([2]; diazepam 1 mg/kg IP, 30 minutes before the test (FIG. 5A)) is reported as “did not”, the “pain-related anxiety-like behaviour of CCI rats (entries in centre)” value ([2]; diazepam 3 mg/kg (higher dose, data not shown)) is reported as “did not” and the “reversal” value [2] is reported as “does not reverse”.
For `Clc1cccc(N2CCNCC2)c1` [mCPP], the “exploratory activity (number of entries)” value ([6]; mCPP 1-3 mg/kg i.p.) was “dose-dependent decrease”, the “number of entries in the centre of the arena” value ([6]; mCPP higher dose (3 mg/kg) i.p., vs 13±3 vehicle-treated) was 5±2 and the “rats that explored the centre less than 6 times” value ([6]; mCPP, compared to 16% in the control group) was “Seventy-five”.
With `COc1cccc(C2(O)CCCCC2CN(C)C)c1` (stereo not shown) [Tramadol] the “efficacy” value [4] was “show efficacy”, the “performance of rats in the beam walking test” value ([4]; tramadol 30 mg/kg p.o.) was “not significantly different from CCI controls” and the “number of foot slips” value ([4]; tramadol 100 mg/kg p.o. (higher dose), 1 hour post drug administration, vs 6±1 CCI vehicle-treated group, p<0.01) was 1±1. The “ability of CCI rats to cross the beam” value ([4]; tramadol 30-100 mg/kg p.o.) was “dose dependently improves”, the “rota rod performance of neuropathic rats” value [5] was “did not improve; also recorded: did not showed improvement” and the “reversal” value [2] was “does not reverse”. The “pain-related anxiety-like behaviour of CCI rats (entries in centre)” value ([2]; tramadol 30 mg/kg PO, 30 minutes before the test (FIG. 5A)) was “did not”, the “pain-related anxiety-like behaviour of CCI rats (entries in centre)” value ([2]; tramadol 100 mg/kg (higher dose, data not shown)) was “did not” and the “cognitive dysfunction (memory/attention deficit) of neuropathic rats” value [7] was “reversed”. The “discrimination index compared to vehicle-treated CCI rats” value ([7]; P<0.01) was “significant increase”.
